Laboratory results taken from patent US20220151982A1, “CANNABINOID COMPOSITIONS AND USE THEREOF” (priority 2019, published 2022).
Several values for one entry are separate records, joined by “and”; a condition that tells them apart may be missing. Identical values can stand only once. Like-named read-outs stand apart in the source and are kept apart here.

What was measured:
[1] = test system: resistant pancreatic cancer cells (PANC-1); type: cell-based; settings: 4 h exposure, XTT after 72 h
Description: (§1) A resistant pancreatic cancer cells line (PANC-1) was exposed to fluorouracil (5-FU), Tetrahydrocannabinolic acid (THCa) and combination thereof. The cells were exposed to the treatment agents for 4 hours, after which the media was replaced. Cell survival/death levels were measured after 72 hours by XTT. The percent of cell survival was determined as the absorbance signal with subtracted background (media only) and normalized by mock. Each experimental combination was performed in quadruplicate/pentaplicate.

[2] = test system: Methicillin-resistant Staphylococcus aureus (MRSA); assay: MRSA killing by CFU counting after 4 h incubation; settings: for Percentage death of MRSA cells, Antibiotics alone: antibiotic at MIC value; for Percentage death of MRSA cells, Antibiotics + CBD (565 μM): antibiotic at MIC value + CBD 565 μM
[3] = test system: NAR cell's efflux pumps; assay: Doxorubicin efflux into the media from pre-treated resistant cells; type: cell-based; settings: NAR pre-treated with sub-lethal Doxorubicin; media with vs without cannabinoid, 5 minutes to 24 hours
Description: A resistant ovarian cancer cell line (NAR) was pre-treated with sub-lethal concentrations of Doxorubicin (Dox), and then incubated in media with and without THCa or CBD for time periods ranging from 5 minutes to 24 hours (a total of 12 time points were measured). The ability of the cells to efflux Dox into the media was measured and compared between the cells grown in the presence and absence of THCa (FIG. 8A) or CBD (FIG. 8B).

[4] = test system: resistant ovarian cancer cells (NAR); type: cell-based; settings: 4 h exposure, XTT after 72 h
Description: as §1, with “A non-resistant ovarian cancer cells lines (OVCAR8) and a” for “A”, “resistant ovarian” for “resistant pancreatic”, “line (NAR) were” for “line (PANC-1) was”, “to various concentrations of Doxorubicin (Dox),” for “to fluorouracil (5-FU),”, “and combinations” for “and combination”
(§2) A non-resistant ovarian cancer cells line (OVCAR8) and a resistant ovarian cancer cell line (NAR) were exposed to various concentrations of Doxorubicin (Dox), Cannabidiol (CBD) and combinations thereof. The cells were exposed to the treatment agents for 4 hours, after which the media was replaced. Cell survival/death levels were measured after 72 hours by XTT. The percent of cell survival was determined as the absorbance signal with subtracted background (media only) and normalized by mock. Each experimental combination was performed in quadruplicate/pentaplicate.
(§3) The resistant ovarian cancer cells line (NAR) was exposed to various concentrations of Taxol (Paclitaxel), Tetrahydrocannabinolic acid (THCa) and combinations thereof. The cells were exposed to the treatment agents for 4 hours, after which the media was replaced. Cell survival/death levels were measured after 72 hours by XTT. The percent of cell survival was determined as the absorbance signal with subtracted background (media only) and normalized by mock. Each experimental combination was performed in quadruplicate/pentaplicate.
as §3, with “Cisplatin,” for “Taxol (Paclitaxel),”

[5] = test system: resistant ovarian cancer cells (NAR); type: cell-based; settings: CBN 674 or 270 μM added to Dox
[6] = test system: non-resistant ovarian cancer cells (OVCAR8); assay: XTT cell survival/death, non-resistant ovarian cancer cells; type: cell-based; settings: Doxorubicin 30 μM alone, 4 h exposure, XTT after 72 h
Description: as §2, with “cancer cells lines (OVCAR8) and” for “cancer cells line (OVCAR8) and”, “ovarian cancer cells line (NAR)” for “ovarian cancer cell line (NAR)”, “Doxorubicin (Dox), Tetrahydrocannabinolic acid (THCa) and combinations” for “Doxorubicin (Dox), Cannabidiol (CBD) and combinations”
as §2

[7] = test system: lung cancer resistant cells (NCI-H69/LX4); type: cell-based; settings: 4 h exposure, XTT after 72 h
Description: as §1, with “A multi-drug” for “A”, “small cell lung” for “pancreatic”, “(NCI-H69/LX4)” for “(PANC-1)”, “Vincristine,” for “fluorouracil (5-FU),”

Compound: O=c1[nH]cc(F)c(=O)[nH]1 [5-FU, fluorouracil]
- cell death ([1]; 5-FU 2 μM alone): 14%

Compound: C=C(C)[C@@H]1CCC(C)=C[C@H]1c1c(O)cc(CCCCC)cc1O [CBD, 2-[(6R)-3-Methyl-6-prop-1-en-2-yl-lcyclohex-2-envyl]-5pentylbenzene-1,3-diol]
- Percentage death of MRSA cells, CBD (565 μM) alone ([2]; Table 2, CBD 565 μM without antibiotic, 4 hours): 9%
- decrease of Dox efflux levels [3]: ~40%
- cell death ([4]; CBD 283 μM + Doxorubicin 30 μM): 35%
- cell death ([4]; CBD 565 μM + Doxorubicin 30 μM): 75%

Compound: CCCCCc1cc(O)c2c(c1)OC(C)(C)c1ccc(C)cc1-2 [CBN, Cannabinol]
- effect on Dox toxicity (enhancement of cell death) [5]: did not significantly enhance cell death

Compound: O=C(N[C@H](CO)[C@H](O)c1ccc([N+](=O)[O-])cc1)C(Cl)Cl [Chloramphenicol]
- Percentage death of MRSA cells, Antibiotics alone ([2]; Table 1, 4 hours): 12%
- Percentage death of MRSA cells, Antibiotics + CBD (565 μM) ([2]; Table 2, 4 hours): 58%
- Percentage death of MRSA cells, Antibiotics alone ([2]; Table 2, 4 hours): 12%

Compound: O=C(O)c1cn(C2CC2)c2cc(N3CCNCC3)c(F)cc2c1=O [Ciprofloxacin]
- Percentage death of MRSA cells, Antibiotics alone ([2]; Table 1, 4 hours): 14%
- Percentage death of MRSA cells, Antibiotics + CBD (565 μM) ([2]; Table 2, 4 hours): 54%
- Percentage death of MRSA cells, Antibiotics alone ([2]; Table 2, 4 hours): 14%

Compound: N.N.[Cl][Pt][Cl] [Cisplatin]
- cell death ([4]; Cisplatin 115 μM alone): 12%

Compound: COc1cccc2c1C(=O)c1c(O)c3c(c(O)c1C2=O)C[C@@](O)(C(=O)CO)C[C@@H]3O[C@H]1C[C@H](N)[C@H](O)[C@H](C)O1 [Doxorubicin]
- cell death [6]: 94%
- cell death ([4]; Doxorubicin 30 μM alone): 16% and 20%
- cell death ([4]; Doxorubicin 30 μM alone, listed as Dox): 20%

Compound: CO[C@H]1/C=C/O[C@@]2(C)Oc3c(C)c(O)c4c(O)c(c(/C=N/N5CCN(C)CC5)c(O)c4c3C2=O)NC(=O)/C(C)=C\C=C\[C@H](C)[C@H](O)[C@@H](C)[C@@H](O)[C@@H](C)[C@H](OC(C)=O)[C@@H]1C [Rifampicin]
- Percentage death of MRSA cells, Antibiotics alone ([2]; Table 1, 4 hours): 17%
- Percentage death of MRSA cells, Antibiotics + CBD (565 μM) ([2]; Table 2, 4 hours): 73%
- Percentage death of MRSA cells, Antibiotics + CBD (565 μM) ([2]; Table 2, 4 hours, listed as rifampicin): 73%
- Percentage death of MRSA cells, Antibiotics alone ([2]; Table 2, 4 hours): 17%

Compound: CCCCCc1cc2c(c(O)c1C(=O)O)[C@@H]1C=C(C)CC[C@H]1C(C)(C)O2 [THCa, tetrahydrocannabinolic acid]
- cell death ([1]; THCa 247 μM + 5-FU 2 μM): 77%
- cell death ([1]; THCa 247 μM alone): 8%
- Percentage death of MRSA cells, THCa (88 μM) alone ([2]; Table 1, THCa 88 μM without antibiotic, 4 hours): 6%
- decrease of Dox efflux levels [3]: ~50%
- cell death ([7]; THCa 247 μM + Vincristine 10 μM): 95%
- cell death ([7]; THCa 247 μM alone): 12%
- cell death ([4]; THCa 86 μM + Doxorubicin 30 μM): 64%
- cell death ([4]; THCa 172 μM + Doxorubicin 30 μM): 86%
- cell death ([4]; THCa 247 μM + Cisplatin 115 μM): 94%
- cell death ([4]; THCa 247 μM + Taxol 50 μM): 94%
- cell death ([4]; THCa 247 μM alone): 20% and 18%

Compound: CC(=O)O[C@H]1C(=O)[C@@]2(C)[C@H]([C@H](OC(=O)c3ccccc3)[C@]3(O)C[C@H](OC(=O)[C@H](O)[C@@H](NC(=O)c4ccccc4)c4ccccc4)C(C)=C1C3(C)C)[C@]1(OC(C)=O)CO[C@@H]1C[C@@H]2O [Taxol, Paclitaxel]
- cell death ([4]; Taxol 50 μM alone): 23%

Compound: CN(C)[C@@H]1C(O)=C(C(N)=O)C(=O)[C@@]2(O)C(O)=C3C(=O)c4c(O)cccc4[C@@](C)(O)[C@H]3C[C@@H]12 [Tetracycline]
- Percentage death of MRSA cells, Antibiotics alone ([2]; Table 1, 4 hours): 7%
- Percentage death of MRSA cells, Antibiotics + CBD (565 μM) ([2]; Table 2, 4 hours): 42%
- Percentage death of MRSA cells, Antibiotics + CBD (565 μM) ([2]; Table 2, 4 hours, listed as tetracycline): 42%
- Percentage death of MRSA cells, Antibiotics alone ([2]; Table 2, 4 hours): 7%

Compound: CN[C@H](CC(C)C)C(=O)N[C@H]1C(=O)N[C@@H](CC(N)=O)C(=O)N[C@H]2C(=O)N[C@H]3C(=O)N[C@H](C(=O)N[C@H](C(=O)O)c4cc(O)cc(O)c4-c4cc3ccc4O)[C@H](O)c3ccc(c(Cl)c3)Oc3cc2cc(c3O[C@@H]2O[C@H](CO)[C@@H](O)[C@H](O)[C@H]2O[C@H]2C[C@](C)(N)[C@H](O)[C@H](C)O2)Oc2ccc(cc2Cl)[C@H]1O [Vancomycin]
- Percentage death of MRSA cells, Antibiotics alone ([2]; Table 1, 4 hours): 8%
- Percentage death of MRSA cells, Antibiotics + CBD (565 μM) ([2]; Table 2, 4 hours): 61%
- Percentage death of MRSA cells, Antibiotics alone ([2]; Table 2, 4 hours): 8%

Compound: CC[C@]1(O)C[C@H]2CN(CCc3c([nH]c4ccccc34)[C@@](C(=O)OC)(c3cc4c(cc3OC)N(C=O)[C@H]3[C@@](O)(C(=O)OC)[C@H](OC(C)=O)[C@]5(CC)C=CCN6CC[C@]43[C@@H]65)C2)C1 [Vincristine]
- cell death ([7]; Vincristine 10 μM alone): 17%

Compound: Gentamycin
- Percentage death of MRSA cells, Antibiotics + THCa (88 μM) [2]: 85%
- Percentage death of MRSA cells, Antibiotics alone ([2]; Table 1, 4 hours): 15%
- Percentage death of MRSA cells, Antibiotics + CBD (565 μM) ([2]; Table 2, 4 hours): 58%
- Percentage death of MRSA cells, Antibiotics alone ([2]; Table 2, 4 hours): 15%
